Experimental data published in PubChem BioAssay AID743396 (Broad Institute, 2014).
Active and inactive are the calls of the source.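 Rule for the calls: active = fitted curve reaches a 40% rise in fluorescent cells at or below the top valid dose; inactive = opposite-direction effect, or the rest.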

Experiment: autofluorescent compounds in non-GFP fibroblasts, dose response, artefact control for X-chromosome reactivation project, imaging, mTEFS fibroblasts, cherry-pick (AID 743396);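 note: raw share of Hoechst-counted cells scored GFP positive without control normalization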
Conditions: mTEFS fibroblasts autofluorescence, GFP-channel imaging, 3 days, at 19.5 µM (top of the series)

SMILES: C=CCn1c(SCC(=O)N(CC)C2CCS(=O)(=O)C2)nc2sc3c(c2c1=O)CCC3 (centres undefined)
- % fluorescent cells increase (cells pretreated with 5-aza-dC): 0.034% (inactive)

SMILES: CN(C)C=NC(=O)c1cc(C(=O)c2ccc(Cl)cc2Cl)c[nH]1
- % fluorescent cells increase (cells pretreated with 5-aza-dC): 0.032% (inactive)

SMILES: CC(NC(=O)c1ccccc1)C(=O)N/N=C/c1ccccc1 (centres undefined)
- % fluorescent cells increase (cells pretreated with 5-aza-dC): 0% (inactive)

SMILES: O=[N+]([O-])c1ccccc1-c1ccc(C(=S)N2CCN(c3ccccc3)CC2)o1
- % fluorescent cells increase (cells pretreated with 5-aza-dC): 0.237% (inactive)

SMILES: Cc1ccc(S(=O)(=O)N(C)c2ccc(C)c([N+](=O)[O-])c2)cc1
- % fluorescent cells increase (cells pretreated with 5-aza-dC): 0.055% (inactive)

SMILES: CN1CCN(S(=O)(=O)c2ccc(C#N)cc2)C(c2ccccc2)C1 (centres undefined)
- % fluorescent cells increase (cells pretreated with 5-aza-dC): 0% (inactive)

SMILES: CN(C)CCN(C(=O)c1ccc(S(=O)(=O)N(C)c2ccccc2)cc1)c1nc2cc3c(cc2s1)OCCO3
- % fluorescent cells increase (cells pretreated with 5-aza-dC): 0% (inactive)

SMILES: COc1cccc(CNC(=O)c2cc(S(=O)(=O)N3CCOCC3)cn2C)c1
- % fluorescent cells increase (cells pretreated with 5-aza-dC): 0.274% (inactive)

SMILES: COc1ccc(N2C(=O)C3CCCN3C2c2cccc(OC)c2)cc1 (centres undefined)
- % fluorescent cells increase (cells pretreated with 5-aza-dC): 0.021% (inactive)

SMILES: CCc1ccc(N2CC(C(=O)Nc3cc(C)on3)CC2=O)cc1 (centres undefined)
- % fluorescent cells increase (cells pretreated with 5-aza-dC): 0.015% (inactive)

SMILES: C[C@@H]1CN([C@H](C)CO)C(=O)c2cc(NS(=O)(=O)c3ccccc3)ccc2O[C@@H](C)CCCCO[C@@H]1CN(C)Cc1ccc2c(c1)OCO2
- % fluorescent cells increase (cells pretreated with 5-aza-dC): 3.87% (inactive)

SMILES: Cn1c(=N)n(CC(=O)c2ccccc2)c2ccccc21
- % fluorescent cells increase (cells pretreated with 5-aza-dC): 0% (inactive)

SMILES: O=C(Nc1cccc(S(=O)(=O)NC2=NCCC2)c1)C1CC(=O)N(c2ccc3c(c2)OCCO3)C1 (centres undefined)
- % fluorescent cells increase (cells pretreated with 5-aza-dC): -0.007% (inactive)

SMILES: CCOc1ccccc1N1C(=O)CC(Sc2nccc(C)n2)C1=O (centres undefined)
- % fluorescent cells increase (cells pretreated with 5-aza-dC): 0% (inactive)

SMILES: Cc1cccc(-c2ccc([C@H]3[C@H](CO)N4CCCCN(C(=O)NC(C)C)C[C@@H]34)cc2)c1
- % fluorescent cells increase (cells pretreated with 5-aza-dC): -0.166% (inactive)

SMILES: Cc1nc(NC(=O)C(Cl)Cl)sc1C(=O)N(C)C
- % fluorescent cells increase (cells pretreated with 5-aza-dC): 0% (inactive)

SMILES: O=C(NC1=NN(c2ccccc2)CC1)Nc1ccccc1F
- % fluorescent cells increase (cells pretreated with 5-aza-dC): -0.002% (inactive)

SMILES: COc1ccc(-c2nn(-c3ccccc3)cc2C(=O)NC(=S)Nc2cc(Cl)ccc2Cl)cc1
- % fluorescent cells increase (cells pretreated with 5-aza-dC): 2.13% (inactive)

SMILES: Cc1[nH]c2ccc(Br)cc2c(=O)c1CN1CCCCCC1
- % fluorescent cells increase (cells pretreated with 5-aza-dC): 0% (inactive)

SMILES: COc1ccc(-c2ccc(C#N)c(SCC(=O)NCc3ccco3)n2)cc1OC
- % fluorescent cells increase (cells pretreated with 5-aza-dC): 0% (inactive)

SMILES: Cc1ccsc1/C=N/n1c(-c2cc(-c3ccccc3)n[nH]2)n[nH]c1=S
- % fluorescent cells increase (cells pretreated with 5-aza-dC): 0% (inactive)

SMILES: Cc1cc(NC(=O)c2c(-c3c(Cl)cccc3Cl)noc2C)n(C)n1
- % fluorescent cells increase (cells pretreated with 5-aza-dC): 0.012% (inactive)

SMILES: Cc1ccc(C(=O)c2oc3ccccc3c2NC(=O)c2cc(-c3ccccc3O)n[nH]2)cc1
- % fluorescent cells increase (cells pretreated with 5-aza-dC): 9.74% (inactive)

SMILES: C/C=C/c1ccc(C2[C@H]3CNC[C@@H]2N3Cc2cc(-c3ccccc3)on2)cc1 (some centres undefined)
- % fluorescent cells increase (cells pretreated with 5-aza-dC): -0.166% (inactive)

SMILES: COc1ccccc1-c1cc(C(=O)N2CCCc3ccccc32)no1
- % fluorescent cells increase (cells pretreated with 5-aza-dC): 0.006% (inactive)

SMILES: O=c1c2ccccc2nnn1Cc1ccc2ccccc2c1
- % fluorescent cells increase (cells pretreated with 5-aza-dC): 0.015% (inactive)

SMILES: CCOc1cccc(/C=N/NC(=S)Nc2cc(S(=O)(=O)N3CCOCC3)ccc2N2CCOCC2)c1O
- % fluorescent cells increase (cells pretreated with 5-aza-dC): 0% (inactive)

SMILES: COc1cc(CN2CCC(C(=O)NCC(C)(C)CN(C)C)CC2)ccc1OCc1ccccc1
- % fluorescent cells increase (cells pretreated with 5-aza-dC): 0.013% (inactive)

SMILES: CCOC(=O)N1CCN(C(=O)Cn2ccc3c(OC)cccc3c2=O)CC1
- % fluorescent cells increase (cells pretreated with 5-aza-dC): 0.012% (inactive)

SMILES: COc1ccc(CN(C)C[C@H]2OCCCC[C@@H](C)Oc3ccc(NC(=O)Nc4ccc(F)cc4)cc3C(=O)N([C@@H](C)CO)C[C@H]2C)cc1
- % fluorescent cells increase (cells pretreated with 5-aza-dC): 0% (inactive)

SMILES: CN(C)CCCNC(=O)/C(=C\c1ccc(-c2ccc(Br)cc2)o1)NC(=O)c1ccccc1
- % fluorescent cells increase (cells pretreated with 5-aza-dC): -0.006% (inactive)

SMILES: C[C@H]1CCCCO[C@H](CN(C)S(=O)(=O)c2ccc(Cl)cc2)[C@@H](C)CN([C@@H](C)CO)C(=O)c2cc(NC(=O)Nc3ccccc3)ccc2O1
- % fluorescent cells increase (cells pretreated with 5-aza-dC): 1.86% (inactive)

SMILES: Cc1ccc(S(=O)(=O)c2ccc([N+](=O)[O-])cn2)cc1
- % fluorescent cells increase (cells pretreated with 5-aza-dC): 0% (inactive)

SMILES: Cc1ccc(-c2csc3nc4c5ccccc5c(NCCCN(C)C)nn4c(=O)c23)cc1
- % fluorescent cells increase (cells pretreated with 5-aza-dC): 0% (inactive)

SMILES: O=C(CCN1CCCCC1)NCC[C@@H]1CC[C@H](NC(=O)C2CCCCC2)[C@H](CO)O1
- % fluorescent cells increase (cells pretreated with 5-aza-dC): 0.045% (inactive)

SMILES: O=c1[nH]nc(SCCS(=O)(=O)c2ccc(F)cc2)n1-c1ccccc1C(F)(F)F
- % fluorescent cells increase (cells pretreated with 5-aza-dC): -0.004% (inactive)

SMILES: NS(=O)(=O)c1cccc(-n2cnnn2)c1
- % fluorescent cells increase (cells pretreated with 5-aza-dC): 0% (inactive)

SMILES: CC(=O)Oc1ccc2c(=O)c(-c3ccccc3)coc2c1
- % fluorescent cells increase (cells pretreated with 5-aza-dC): 0.02% (inactive)

SMILES: CNC(=O)C[C@H]1C(=O)N(c2ccccc2)C[C@@H]1C
- % fluorescent cells increase (cells pretreated with 5-aza-dC): 0% (inactive)

SMILES: COc1ccc2c3c(n(C)c2c1)[C@@H](CO)N(C)CC31CN(C(=O)NC(C)C)C1
- % fluorescent cells increase (cells pretreated with 5-aza-dC): -0.14% (inactive)

SMILES: O=C(NNC(=O)c1ccccc1Cl)c1ccccc1Cl
- % fluorescent cells increase (cells pretreated with 5-aza-dC): 0.057% (inactive)

SMILES: CC(C)CC#Cc1ccc([C@@H]2[C@@H](CO)N3C(=O)CN(C(=O)c4cccc(F)c4)C[C@H]23)cc1
- % fluorescent cells increase (cells pretreated with 5-aza-dC): -0.108% (inactive)

SMILES: Cc1cccn2c(=O)c3cc(C(=O)NCc4ccc(F)cc4)c(=N)n(CCCN4CCOCC4)c3nc12
- % fluorescent cells increase (cells pretreated with 5-aza-dC): 0% (inactive)

SMILES: Cc1ccc(-c2ccc3c(c2)O[C@@H](CN(C)Cc2ccncc2)[C@@H](C)CN([C@@H](C)CO)S3(=O)=O)cc1
- % fluorescent cells increase (cells pretreated with 5-aza-dC): 0.037% (inactive)

SMILES: CC(Sc1nnc(-c2ccncc2)n1C)C(=O)Nc1ccc(N2CCOCC2)cc1 (centres undefined)
- % fluorescent cells increase (cells pretreated with 5-aza-dC): 0% (inactive)

SMILES: COC(=O)CCN1CCC(c2cc(-c3cccc(C(F)(F)F)c3)n[nH]2)CC1
- % fluorescent cells increase (cells pretreated with 5-aza-dC): 0% (inactive)

SMILES: COc1ccc(-c2noc(-c3cccs3)n2)cc1OC
- % fluorescent cells increase (cells pretreated with 5-aza-dC): 0.073% (inactive)

SMILES: CC[N+]1=C(C)C(C)(C)c2cc(C)ccc21
- % fluorescent cells increase (cells pretreated with 5-aza-dC): 0.089% (inactive)

SMILES: CC1CCN(C(=O)Cn2nnc(-c3ccccc3)n2)CC1
- % fluorescent cells increase (cells pretreated with 5-aza-dC): 0.009% (inactive)

SMILES: CCc1ccc(NS(=O)(=O)c2ccc3[nH]cc(C(=O)N4CCc5ccccc54)c(=O)c3c2)cc1
- % fluorescent cells increase (cells pretreated with 5-aza-dC): 0% (inactive)

SMILES: CCOc1ccc(C(Nc2cccnc2)c2cc(Cl)c3cccnc3c2O)cc1 (centres undefined)
- % fluorescent cells increase (cells pretreated with 5-aza-dC): 0% (inactive)

SMILES: COc1cc(NS(=O)(=O)c2ccc3ccccc3c2)c2ncccc2c1
- % fluorescent cells increase (cells pretreated with 5-aza-dC): 0% (inactive)

SMILES: Cc1ccc(NCc2nnc(SCC(=O)NNC(=O)Cc3ccccc3)n2C)cc1
- % fluorescent cells increase (cells pretreated with 5-aza-dC): 0.009% (inactive)

SMILES: CO[C@H]1CN(C)C(=O)c2ccc(NC(=O)C3CCCCC3)cc2OC[C@H](C)NC[C@@H]1C
- % fluorescent cells increase (cells pretreated with 5-aza-dC): 0.009% (inactive)

SMILES: Cn1c(=O)c(C#N)c(-c2ccc(F)cc2)c2cc(C(=O)c3cc(Cl)cc(Cl)c3O)cnc21
- % fluorescent cells increase (cells pretreated with 5-aza-dC): 0.617% (inactive)

SMILES: COc1ccc2c(c1)c(/C=N/Nc1nc3ccccc3[nH]1)c(C)n2C
- % fluorescent cells increase (cells pretreated with 5-aza-dC): 3.71% (inactive)

SMILES: C[C@@H]1CN([C@@H](C)CO)C(=O)c2cc(NS(C)(=O)=O)ccc2O[C@@H](C)CCCCO[C@@H]1CN(C)Cc1ccccc1
- % fluorescent cells increase (cells pretreated with 5-aza-dC): 0.259% (inactive)

SMILES: Cc1cc(/C=C2/C(=O)NC(=O)N(Cc3ccco3)C2=O)c(C)n1-c1ccccc1O
- % fluorescent cells increase: 0% (inactive)

SMILES: Cc1cccc(C(=O)NCc2ccc(S(N)(=O)=O)cc2)c1[N+](=O)[O-]
- % fluorescent cells increase (cells pretreated with 5-aza-dC): -0.007% (inactive)
